In patent US12129312B2, “Peptide compound, application thereof and composition containing same” (priority 2017, dated 2024) one finds EC50 data, which are given here for twelve molecules.

Read-outs that look alike come from different tables or passages of the source. Numbered stars: 1 amine (or outer) side, 2 acyl side, 3 side chain; on linkers, the order of the positions; unused ones are H or OH. Square brackets hold non-standard residues; d marks the D form. Peptide text beside a SMILES is read from it. * marks the point of attachment. Bpa = N[C@@H](Cc1ccc(C(=O)c2ccccc2)cc1)C(=O)O; Benzoyl(2,3-diOH) = O=C(c1cccc(O)c1O)*; 1Nal = N[C@@H](Cc1cccc2ccccc12)C(=O)O; 2Nal = N[C@@H](Cc1ccc2ccccc2c1)C(=O)O; dNMeY = CN[C@H](Cc1ccc(O)cc1)C(=O)O; X3 = O=C(N1Cc2ccccc2CN1[*:1])[*:2]; Tic = O=C(O)[C@@H]1Cc2ccccc2CN1; NMeL = CN[C@@H](CC(C)C)C(=O)O; X12 = O=C(Cc1cc(O)cc(O)c1)*; X9 = O=C(c1ccc(O)c(O)c1O)*; NMeS = CN[C@@H](CO)C(=O)O; Thz = O=C(O)[C@@H]1CSCN1; X8 = O=C(c1c(O)cccc1O)* Bounds are passed on as bounds.

For the experiment, the target named is T1, human Chemokine like receptor 1 (Homo sapiens, UniProt Q99788).
T1 construct: host or cells: U2OS (Tango CMKLR1-bla U2OS)
T1 sequence (Q99788 1-373): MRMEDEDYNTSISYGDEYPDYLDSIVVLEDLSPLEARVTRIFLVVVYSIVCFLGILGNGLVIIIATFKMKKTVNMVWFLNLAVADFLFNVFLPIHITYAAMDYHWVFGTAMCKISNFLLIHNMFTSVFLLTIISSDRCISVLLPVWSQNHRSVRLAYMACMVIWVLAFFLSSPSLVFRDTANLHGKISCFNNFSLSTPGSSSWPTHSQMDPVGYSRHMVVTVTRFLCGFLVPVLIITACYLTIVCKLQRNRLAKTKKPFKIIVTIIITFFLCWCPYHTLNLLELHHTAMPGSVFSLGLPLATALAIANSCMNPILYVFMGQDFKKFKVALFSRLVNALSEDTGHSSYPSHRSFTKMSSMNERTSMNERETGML
The experiment is described as follows: Activation of Tango CMKLR1-bla U2OS cells (beta-lactamase FRET reporter). Type of experiment: cell-based. The method, then:
The polypeptide sequences described above are the polypeptide sequences disclosed in the patent JP2010-229093A of BANYU PHARMA CO LTD: (D-Tyr)-Phe-Leu-Pro-(D-Ser)-Gln-Phe-(D-Ala)-Tic-Ser was used as a positive control (SEQ ID NO: 102).
The activation of the compound on Tango™ CMKLR1-bla U2OS cells (Invitrogen Cat. nos. K1551) was tested.
The activation of each compound in the above experiments on Tango™ CMKLR1-bla U2OS cells was determined as follows:
Day 1: Cell Seeding on Plate
2. The medium was removed, and the cells were washed with DPBS twice, followed by addition of 3 mL of 0.05% trypsin, and placed in a 37° C., 5% CO2 incubator (Thermo Fisher, Waltham, Massachusetts, USA) for 3-5 minutes. After the cells were rounded, 3-5 mL of medium (medium formula: DMEM 90%, Dialyzed FBS 10%, NEAA 0.1 mM, HEPES (pH 7.3) 25 mM, Penicillin 100 U/mL, Streptomycin 100 μg/mL) was added to terminate digestion.
2. The digested cells were transferred to a 15 mL centrifuge tube (430790, Corning), centrifuged at 1000 rpm for 5 minutes (5810R, Eppendorf, Hamburg, Germany), and the supernatant was discarded.
3. 7 mL of medium (DMEM+10% FBS) was added, blowed into a single cell suspension, counted by a cell counter, and adjusted the cell suspension to a desired cell density of 250,000/mL with the medium.
4. The cell suspension was seeded into a 384-well cell plate (Corning 3712) in 40 μL/well to make the number of cells 10000 cells/well, and 32 μL of medium was added to the blank control.
5. The incubation was performed overnight at 37° C. under 5% CO2.
Day 2: Dosing and Testing
1. Preparation of 200× Compound Plate
1.1 The test compound was formulated into a 10 mM working solution in DMSO.
1.2 45 μL of 10 mM test compound was added to the 2nd column of rows A to P in the Echo-384 well plate. The compound was subjected to a 3-fold dilution with Precision (30 μL of DMSO was added to the 3rd to 11th columns; 15 μL of the drug solution was pipetted from the 2nd column to the 3rd column, blown and evenly mixed; then 15 μL of the drug solution was pipetted from the 3rd column to the 4th column, blown and evenly mixed; the drugs was subjected to a 3-fold dilution to obtain 10 concentrations in total). The 1st and 12th columns of the Echo-384 well plate were supplemented with 30 μL of DMSO.
2. Preparation of Intermediate Plate
500 nL, i.e., 0.5 μL of the diluted compound (or DMSO) in the 200× compound plate was transferred into the corresponding position of V-bottom 384-well plate with Echo. 20 μL of medium was added to each well, centrifuged, shaken and evenly mixed. The concentration of the drugs in each well of the 2nd to 11th column of intermediate plate (i.e., 5× compound plate) were shown in following Table 4.
3.1 The cell plate was taken out from the incubator and observed under a microscope. The diluted compound or DMSO in the intermediate plate was added to the cell plate in 10 μL/well in the corresponding cell plate, and 40 μL of medium was pre-filled in each well.
3.2 The cells were incubated at 37° C. under 5% CO2 for 4 hours.
4.1 1 mM CCF4-AM, solution B, Solution C, and Solution D were used to prepare an appropriate amount of 6× detection solution. The LiveBLAzer™-FRET B/G Loading kit (K1095, Thermo Fisher, Waltham, Massachusetts, USA) kit containing CCF-4AM and solutionB, solutionC, and solutionD was also purchased from invitrogen (K1157, Thermo Fisher, Waltham, Massachusetts, USA).
4.2 The cells were observed under a microscope and the cell plate was equilibrated to room temperature.
4.3 6 μL of CCF-4AM dissolved solution A, 60 μL of solution B, 904 μL of solution C and 30 μL of solution D were pipetted in an EP tube, blown, and evenly mixed to obtain a 6× detection solution. The prepared 6× detection solution was pipetted to a 384-well plate in 10 μL/well.

Where [1] appears, read: determination by the method of Effect Embodiment 1, read-out: EC50.

The EC50 is the concentration needed to bring the measured effect to its halfway point. `CC(C)C[C@H](NC(=O)[C@H](Cc1ccccc1)NC(=O)[C@H](N)Cc1ccc(O)cc1)C(=O)N1CCC[C@H]1C(=O)N[C@H](CO)C(=O)N[C@@H](CCC(N)=O)C(=O)N[C@@H](Cc1cccc2ccccc12)C(=O)N[C@H](C)C(=O)N1Cc2ccccc2C[C@H]1C(=O)N[C@@H](CO)C(=O)O` [YW-117, (D-Tyr)-Phe-Leu-Pro-(D-Ser)-Gln-1Nal-(D-Ala)-Tic-Ser-OH] (H-[dY]FLP[dS]Q[1Nal][dA][Tic]S-OH) registered an EC50 of 3.9 nM.

As to `CC(C)C[C@H](NC(=O)[C@H](Cc1ccccc1)NC(=O)[C@H](N)Cc1ccc(O)cc1)C(=O)N1CCC[C@H]1C(=O)N[C@H](CO)C(=O)N[C@@H](CCC(N)=O)C(=O)N[C@@H](Cc1ccc2ccccc2c1)C(=O)N[C@H](C)C(=O)N1Cc2ccccc2C[C@H]1C(=O)N[C@@H](CO)C(=O)O` [YW-118, (D-Tyr)-Phe-Leu-Pro-(D-Ser)-Gln-2Nal-(D-Ala)-Tic-Ser-OH] (H-[dY]FLP[dS]Q[2Nal][dA][Tic]S-OH), the EC50 was found to be 6.9 nM.

For `CC(C)C[C@H](NC(=O)[C@H](Cc1ccccc1)NC(=O)[C@H](N)Cc1ccc(O)cc1)C(=O)N1CCC[C@H]1C(=O)N[C@H](CO)C(=O)N[C@@H](CCC(N)=O)C(=O)N[C@@H](Cc1ccc(C(=O)c2ccccc2)cc1)C(=O)N[C@H](C)C(=O)N1Cc2ccccc2C[C@H]1C(=O)N[C@@H](CO)C(=O)O` [YW-119, (D-Tyr)-Phe-Leu-Pro-(D-Ser)-Gln-Bpa-(D-Ala)-Tic-Ser-OH] (H-[dY]FLP[dS]Q[Bpa][dA][Tic]S-OH), the EC50 under setting [1] was determined as 9.9 nM.

Consider `CC(C)C[C@@H](C(=O)N1CSC[C@H]1C(=O)N[C@H](CO)C(=O)N[C@@H](CCC(N)=O)C(=O)N[C@@H](Cc1ccccc1)C(=O)N[C@H](C)C(=O)N1Cc2ccccc2C[C@H]1C(=O)N[C@@H](CO)C(=O)O)N(C)C(=O)[C@H](Cc1ccccc1)NC(=O)[C@H](N)Cc1ccc(O)cc1` [YW-121, (D-Tyr)-Phe-(NMe-Leu)-Thz-(D-Ser)-Gln-Phe-(D-Ala)-Tic-Ser-OH] (H-[dY]F[NMeL][Thz][dS]QF[dA][Tic]S-OH), for which the EC50 under setting [1] was 0.7 nM.

Turning to `CN[C@H](Cc1ccc(O)cc1)C(=O)N[C@@H](Cc1ccccc1)C(=O)N(C)[C@@H](CC(C)C)C(=O)N1CSC[C@H]1C(=O)N[C@H](CO)C(=O)N[C@@H](CCC(N)=O)C(=O)N[C@@H](Cc1ccccc1)C(=O)N[C@H](C)C(=O)N1Cc2ccccc2C[C@H]1C(=O)N(C)[C@@H](CO)C(=O)O` [YW-124, (NMe-D-Tyr)-Phe-(NMe-Leu)-Thz-(D-Ser)-Gln-Phe-(D-Ala)-Tic-(NMe-Ser)-OH] (H-[dNMeY]F[NMeL][Thz][dS]QF[dA][Tic][NMeS]-OH), under setting [1], the EC50 amounted to 1.3 nM.

For `CC(C)C[C@H](NC(=O)[C@H](Cc1ccccc1)NC(=O)[C@@H](Cc1ccc(O)cc1)NC(=O)c1cccc(O)c1O)C(=O)N1CCC[C@H]1C(=O)N[C@H](CO)C(=O)N[C@@H](CCC(N)=O)C(=O)N[C@@H](Cc1ccccc1)C(=O)N[C@H](C)C(=O)N1Cc2ccccc2C[C@H]1C(=O)N[C@@H](CO)C(=O)O` [YW-127, 2,3-dihydroxybenzoyl-(D-Tyr)-Phe-Leu-Pro-(D-Ser)-Gln-Phe-(D-Ala)-Tic-Ser-OH] ({Benzoyl(2,3-diOH)}-[dY]FLP[dS]QF[dA][Tic]S-OH), under setting [1], the EC50 is 10 nM.

Regarding `CC(C)C[C@H](NC(=O)[C@H](Cc1ccccc1)NC(=O)[C@@H](Cc1ccc(O)cc1)NC(=O)c1c(O)cccc1O)C(=O)N1CCC[C@H]1C(=O)N[C@H](CO)C(=O)N[C@@H](CCC(N)=O)C(=O)N[C@@H](Cc1ccccc1)C(=O)N[C@H](C)C(=O)N1Cc2ccccc2C[C@H]1C(=O)N[C@@H](CO)C(=O)O` [YW-128, 2,6-dihydroxybenzoyl-(D-Tyr)-Phe-Leu-Pro-(D-Ser)-Gln-Phe-(D-Ala)-Tic-Ser-OH] (X8-[dY]FLP[dS]QF[dA][Tic]S-OH), the EC50 under setting [1] worked out at 20 nM.

As to `CC(C)C[C@H](NC(=O)[C@H](Cc1ccccc1)NC(=O)[C@@H](Cc1ccc(O)cc1)NC(=O)c1ccc(O)c(O)c1O)C(=O)N1CCC[C@H]1C(=O)N[C@H](CO)C(=O)N[C@@H](CCC(N)=O)C(=O)N[C@@H](Cc1ccccc1)C(=O)N[C@H](C)C(=O)N1Cc2ccccc2C[C@H]1C(=O)N[C@@H](CO)C(=O)O` [YW-129, 2,3,4-Trihydroxybenzoyl-(D-Tyr)-Phe-Leu-Pro-(D-Ser)-Gln-Phe-(D-Ala)-Tic-Ser-OH] (X9-[dY]FLP[dS]QF[dA][Tic]S-OH), under setting [1], the EC50 is 9.1 nM.

Consider `CC(C)C[C@H](NC(=O)[C@H](Cc1ccccc1)NC(=O)[C@@H](Cc1ccc(O)cc1)NC(=O)Cc1cc(O)cc(O)c1)C(=O)N1CCC[C@H]1C(=O)N[C@H](CO)C(=O)N[C@@H](CCC(N)=O)C(=O)N[C@@H](Cc1ccccc1)C(=O)N[C@H](C)C(=O)N1Cc2ccccc2C[C@H]1C(=O)N[C@@H](CO)C(=O)O` [YW-131, 3,5-Dihydroxyphenylacetyl-(D-Tyr)-Phe-Leu-Pro-(D-Ser)-Gln-Phe-(D-Ala)-Tic-Ser] (X12-[dY]FLP[dS]QF[dA][Tic]S-OH), for which, under setting [1], the EC50 was found to be 2.9 nM.

Turning to `CN[C@H](Cc1ccc(O)cc1)C(=O)N[C@@H](Cc1ccccc1)C(=O)N(C)[C@@H](CC(C)C)C(=O)N1CSC[C@H]1C(=O)N[C@H](CO)C(=O)N[C@@H](CCC(N)=O)C(=O)N[C@@H](Cc1cccc2ccccc12)C(=O)N[C@H](C)C(=O)N1Cc2ccccc2C[C@H]1C(=O)N(C)[C@@H](CO)C(=O)O` [YW-142, (D-NMe-Tyr)-Phe-(NMe-Leu)-Thz-(D-Ser)-Gln-1Nal-(D-Ala)-Tic-(NMe-Ser)-OH] (H-[dNMeY]F[NMeL][Thz][dS]Q[1Nal][dA][Tic][NMeS]-OH; N-terminus assumed), the EC50 under setting [1] came to 0.9 nM.

For the molecule `CN[C@H](Cc1ccc(O)cc1)C(=O)N[C@@H](Cc1ccccc1)C(=O)N(C)[C@@H](CC(C)C)C(=O)N1CCC[C@H]1C(=O)N[C@H](CO)C(=O)N[C@@H](CCC(N)=O)C(=O)N[C@@H](Cc1ccc2ccccc2c1)C(=O)N[C@H](C)C(=O)N1Cc2ccccc2C[C@H]1C(=O)N(C)[C@@H](CO)C(=O)O` [YW-146, (D-NMe-Tyr)-Phe-(NMe-Leu)-Pro-(D-Ser)-Gln-2Nal-(D-Ala)-Tic-(NMe-Ser)-OH] (H-[dNMeY]F[NMeL]P[dS]Q[2Nal][dA][Tic][NMeS]-OH), under setting [1], the EC50 worked out at 1.4 nM.

In the case of `CC(C)C[C@H](NC(=O)[C@H](Cc1ccccc1)NC(=O)[C@H](N)Cc1ccc(O)cc1)C(=O)N1CCC[C@H]1C(=O)N[C@H](CO)C(=O)N[C@@H](CCC(N)=O)C(=O)N[C@H](CO)C(=O)N[C@H](C)C(=O)N1Cc2ccccc2CN1C(=O)N[C@@H](CO)C(=O)O` [YW-147, (D-Tyr)-Phe-Leu-Pro-(D-Ser)-Gln-(D-Ser)-(D-Ala)-azaTic-Ser-OH] (H-[dY]FLP[dS]Q[dS][dA][X3]S-OH; N-terminus assumed), the EC50 entry (Tango CMKLR1-bla U2OS cells, 4 hours incubation, four-parameter fit of activation rate) is “no fit” and the concentration giving a half-maximal response (EC50) under setting [1] was more than 50000 nM.
